This is an account of results in patent EP2587940B1, “PARTICLES COMPRISING HYDROPHOBIC POLYMER AND HYDROPHOBIC PHENOLIC COMPOUND” (Unilever N.V., priority 2010, dated 2012).

The test system of series [1] is acetylated LDL metabolism. The settings on record: Whitman S.C. et al. 2005; cited from earlier work.
The nature of series [2]: Water dispersibility, USP 2 dissolution test. The conditions noted are these: deionised water with 0.05% Tween 80. It is filed as physicochemical. On the procedure: The aim of the experiment is to see how well formulated curcumin disperses in aqueous media. […] Curcumin determined included both free as well as complexed or encapsulated curcumin. […] Samples were withdrawn at specified time interval (5, 15, 30, 60, 90, 120 and 180 mins) and analysed using UV-vis spectroscopic method.

Series [3] in a line: Photostability under UV irradiation. In kind it is physicochemical. The settings on record: UV irradiation 302 nm. The source says: (§1) Enhanced stability of colloidal dispersion of curcumin-zein to various pH and UV irradiation was studied as follows.
Series [4] in a line: pH stability in buffers. In kind it is physicochemical. The settings on record: for non-degraded: after 6 hours, 20 microgram per mL curcumin.
From the text: as §1

Series [5] is described as follows: Stability in simulated gastro-intestinal conditions (dissolution test, gastric and intestinal phase). In kind it is physicochemical. The settings on record: gastric phase pH 2 with pepsin in first 2 hours. On the procedure:
To study the stability of the colloidal dispersion of particles according to the invention in simulated gastro-intestinal conditions, a dissolution test was carried out in simulated gastric and intestinal phases using following conditions. This test indicates whether the particles are suitable to be used as a delivery system for phenolic compounds to the human body. Zein-curcumin particles (5:1 wt/wt) were used. • For gastric phase: Water with 0.05% Tween , pH 2 in first 2 hours with pepsin • For intestinal phase: pH adjusted to 6.8 and bile salts and pancreatin added to the medium. • Sampling point: (5, 15, 30, 60, 90, 120 and 180 mins).

Turning to `COc1ccc(-c2cc(=O)c3c(OC)c(OC)c(OC)c(OC)c3o2)cc1OC` [nobiletin], the “inhibited acetylated LDL metabolism” value in series [1] is listed as 50-72%.
`COc1cc(/C=C/C(=O)CC(=O)/C=C/c2ccc(O)c(OC)c2)ccc1O` [pure curcumin, Curcumin]: the cumulative release in series [2] (0 min) stood at 0%; in series [2] (15 min) it was 18.1 ± 1.3%; in series [2] (30 min) it was 19.1 ± 1.4%; in series [2] (60 min), 22.6 ± 1.7%; in series [2] (90 min), 25.7 ± 1.9%; in series [2] (120 min) it was 27.8 ± 2.0%. In series [2] (180 min), the cumulative release came to 32.8 ± 2.7%. The unchanged curcumin level in series [3] (0 min) was determined as 100%; in series [3] (5 min), 93.6%; in series [3] (10 min) it was 88.4%; in series [3] (15 min) it was 66.7%; in series [3] (30 min) it was 59.6%. Moreover, the non-degraded in series [4] (pH 1.2) was determined as 56.0%; in series [4] (pH 4.5), 69.7%; in series [4] (pH 6.7) it was 67.6%; in series [4] (pH 7.4) it was 66.6%; in series [4] (pH 9.0), 52.9%. The colour entry in series [4] (pH 9.0) is “turned red in colour”. In addition, the release in series [5] (0 min, then intestinal phase pH 6.8 with bile salts and pancreatin) is recorded as 0%; in series [5] (5 min, then intestinal phase pH 6.8), 18.0 ± 2.0%; in series [5] (15 min, then intestinal phase pH 6.8) it was 18.3 ± 0.3%; in series [5] (30 min, then intestinal phase pH 6.8), 20.9 ± 2.2%; in series [5] (60 min, then intestinal phase pH 6.8), 21.7 ± 1.9%; in series [5] (90 min, then intestinal phase pH 6.8) it was 38.1 ± 0.5%. The release in series [5] (120 min, then intestinal phase pH 6.8) is reported as 36.9 ± 1.4%; in series [5] (150 min, then intestinal phase pH 6.8), 37.6 ± 2.3%; in series [5] (180 min, then intestinal phase pH 6.8), 37.0 ± 1.2%.
